Measurements taken from patent US9855268B2, “Triazolo[4,5-d]pyrimidine derivatives” (Merck Patent GmbH, priority 2013, dated 2018).
Structures can show the parent of a compound that is named as a salt.

target: GCN2 (Homo sapiens, UniProt Q9P2K8); assay: GCN2 enzyme assay (TR-FRET Lanthascreen, GFP-eIF2alpha phosphorylation); format: biochemical; conditions: 10 μM ATP, 80 nM GFP-eIF2a, 30 nM GCN2
Excerpt: GCN2: Assay Principle & Conditions
This assay can quantificate the activity of the serin kinase GCN2 (general control non-derepressible-2).
This kinase is involved in the stress metabolism of cells. It is activated upon starvation (amino acid depletion). Its natural substrate is eIF2a (eukaryotic initiation factor 2 alpha subunit), a translation factor, which gets activated (phosphorylated) by GCN2 in case of an amino acid bottleneck in the cells. This in turn leads to a halt of the protein synthesis. Inhibition of GCN2 results in stopping this mechanism: The cell can not stop protein production upon “starvation” stress.
The assay is run in two steps: the enzymatic reaction and the detection step. In the first step GCN2 is incubated with 10 μM ATP and 80 nM of the GFP-labelled substrate eIF2alpha at room temperature.
The enzymatic reaction is stopped by addition of EDTA. The amount of phosphorylated eIF2alpha is determined by TR-FRET (Lanthascreen): A complex is formed consisting of antibody and GFP labelled phospho-eIF2a, which allows a FRET upon exitation at 340 nm.
Final Concentrations in the Enzymatic Reaction

GCN2, sequence (Q9P2K8 whole entry, species assumed): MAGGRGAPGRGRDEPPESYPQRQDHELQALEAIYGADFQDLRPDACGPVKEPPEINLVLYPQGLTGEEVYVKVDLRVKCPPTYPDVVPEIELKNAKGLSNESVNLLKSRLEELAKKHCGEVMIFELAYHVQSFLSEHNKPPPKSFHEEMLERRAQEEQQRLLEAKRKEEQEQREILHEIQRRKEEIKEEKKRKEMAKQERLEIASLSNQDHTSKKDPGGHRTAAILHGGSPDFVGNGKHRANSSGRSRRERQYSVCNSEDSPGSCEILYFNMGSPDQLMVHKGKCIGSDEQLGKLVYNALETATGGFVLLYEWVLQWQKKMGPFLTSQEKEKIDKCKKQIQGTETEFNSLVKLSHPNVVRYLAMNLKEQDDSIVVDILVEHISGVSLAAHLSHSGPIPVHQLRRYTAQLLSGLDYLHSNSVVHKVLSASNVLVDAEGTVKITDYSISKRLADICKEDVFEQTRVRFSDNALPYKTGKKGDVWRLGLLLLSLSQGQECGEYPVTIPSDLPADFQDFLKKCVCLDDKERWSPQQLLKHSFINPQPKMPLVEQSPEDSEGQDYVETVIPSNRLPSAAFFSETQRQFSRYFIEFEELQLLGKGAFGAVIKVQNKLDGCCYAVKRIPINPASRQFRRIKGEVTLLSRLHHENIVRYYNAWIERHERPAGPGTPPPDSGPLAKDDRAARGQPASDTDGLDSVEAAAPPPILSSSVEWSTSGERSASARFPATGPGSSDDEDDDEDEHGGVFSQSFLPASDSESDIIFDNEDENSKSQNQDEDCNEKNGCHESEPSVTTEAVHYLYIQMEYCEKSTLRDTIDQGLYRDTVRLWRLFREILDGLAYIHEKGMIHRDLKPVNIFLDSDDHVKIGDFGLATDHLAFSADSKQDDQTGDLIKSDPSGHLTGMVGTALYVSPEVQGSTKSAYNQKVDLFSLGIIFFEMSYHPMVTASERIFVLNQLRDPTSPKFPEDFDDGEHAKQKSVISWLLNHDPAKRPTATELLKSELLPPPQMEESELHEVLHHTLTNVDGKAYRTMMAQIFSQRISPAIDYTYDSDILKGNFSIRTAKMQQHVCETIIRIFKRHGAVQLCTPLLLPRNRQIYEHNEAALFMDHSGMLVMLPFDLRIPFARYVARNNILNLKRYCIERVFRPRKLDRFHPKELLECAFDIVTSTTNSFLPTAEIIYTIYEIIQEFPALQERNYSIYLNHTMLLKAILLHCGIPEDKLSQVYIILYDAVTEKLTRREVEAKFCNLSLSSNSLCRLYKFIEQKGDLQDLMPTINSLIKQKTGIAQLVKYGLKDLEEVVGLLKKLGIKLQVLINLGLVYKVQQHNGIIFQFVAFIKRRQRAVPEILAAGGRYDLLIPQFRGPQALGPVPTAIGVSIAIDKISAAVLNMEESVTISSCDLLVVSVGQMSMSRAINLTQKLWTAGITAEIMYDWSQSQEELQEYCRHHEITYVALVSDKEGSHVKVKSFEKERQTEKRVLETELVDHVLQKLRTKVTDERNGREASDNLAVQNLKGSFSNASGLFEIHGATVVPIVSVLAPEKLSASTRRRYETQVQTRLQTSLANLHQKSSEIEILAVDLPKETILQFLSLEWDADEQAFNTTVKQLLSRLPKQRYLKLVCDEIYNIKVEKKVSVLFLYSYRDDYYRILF

IC50	Structure (SMILES)
5 to 10 µM	COc1ccc(-n2nnc3cnc(NC4C5CNCC54)nc32)cc1 (stereo not drawn) [A37, (3-aza-bicyclo[3.1.0]hex-6-yl)-[3-(4-methoxy-phenyl)-3H-[1,2,3]triazolo[4,5-d]pyrimidin-5-yl]-amine hydrochloride]
< 1 µM	COc1ccc(-n2nnc3cnc(NC4CCNCC4)nc32)cc1 [A40, [3-(4-methoxy-phenyl)-3H-[1,2,3]triazolo[4,5-d]pyrimidin-5-yl]-piperidin-4-yl-amine hydrochloride]
< 1 µM	COc1ccc(-n2nnc3cnc(NC4CCCN(C(C)=O)C4)nc32)cc1 (stereo not drawn) [A42, 1-{3-[3-(4-methoxy-phenyl)-3H-[1,2,3]triazolo[4,5-d]pyrimidin-5-ylamino]-piperidin-1-yl}-ethanone]
1 to 5 µM	COc1ccc(-n2nnc3cnc(NC4CCCNC4)nc32)cc1 (stereo not drawn) [A43, [3-(4-methoxy-phenyl)-3H-[1,2,3]triazolo[4,5-d]pyrimidin-5-yl]-piperidin-3-yl-amine hydrochloride]
< 1 µM	O=C(O)CCOc1ccc(-n2nnc3cnc(NCCCn4cc([N+](=O)[O-])cn4)nc32)cc1 [A46, 3-(4-{5-[3-(4-nitro-pyrazol-1-yl)-propylamino]-[1,2,3]triazolo[4,5-d]-pyrimidin-3-yl}-phenoxy)-propionic acid]
< 1 µM	Nc1cnn(CCCNc2ncc3nnn(-c4ccc(OCCC(=O)O)cc4)c3n2)c1 [A47, 3-(4-{5-[3-(4-amino-pyrazol-1-yl)-propylamino]-[1,2,3]triazolo[4,5-d]pyrimidin-3-yl}-phenoxy)-propionic acid]
< 1 µM	COc1ccc(-n2nnc3cnc(NC4CCN(C(=O)CN(C)C)CC4)nc32)cc1 [A48, 2-dimethylamino-1-{4-[3-(4-methoxy-phenyl)-3H-[1,2,3]triazolo-[4,5-d]pyrimidin-5-ylamino]-piperidin-1-yl}-ethanone]
1 to 5 µM	COc1ccc(-n2nnc3cnc(NCCN4CCN(C)CC4)nc32)cc1 [A50, [3-(4-methoxy-phenyl)-3H-[1,2,3]triazolo[4,5-d]pyrimidin-5-yl]-[2-(4-methyl-piperazin-1-yl)-ethyl]-amine]
< 1 µM	N[C@H]1CC[C@H](Nc2ncc3nnn(-c4ccc(I)cc4)c3n2)CC1 [A53, N-[3-(4-iodo-phenyl)-3H-[1,2,3]triazolo[4,5-d]pyrimidin-5-yl]-cyclohexane-1,4-diamine]
< 1 µM	CCn1cc(-c2ccc(-n3nnc4cnc(N[C@H]5CC[C@H](N)CC5)nc43)cc2)cn1 [A54, N-{3-[4-(1-ethyl-1H-pyrazol-4-yl)-phenyl]-3H-[1,2,3]triazolo[4,5-d]pyrimidin-5-yl}-(trans)-cyclohexane-1,4-diamine trifluoroacetate]
5 to 10 µM	COc1ccc(-n2nnc3cnc(NCCCN4CCCC4)nc32)cc1 [A61, [3-(4-methoxy-phenyl)-3H-[1,2,3]triazolo[4,5-d]pyrimidin-5-yl]-(3-pyrrolidin-1-yl-propyl)-amine]
1 to 5 µM	COc1ccc(-n2nnc3cnc(NC4CN(C(=O)CN(C)C)C4)nc32)cc1 [A62, 2-dimethylamino-1-{3-[3-(4-methoxy-phenyl)-3H-[1,2,3]triazolo[4,5-d]pyrimidin-5-ylamino]-azetidin-1-yl}-ethanone]
< 1 µM	COc1ccc(-n2nnc3cnc(NC4CN(C(=O)CCN(C)C)C4)nc32)cc1 [A63, 3-dimethylamino-1-{3-[3-(4-methoxy-phenyl)-3H-[1,2,3]triazolo[4,5-d]pyrimidin-5-ylamino]-azetidin-1-yl}-propan-1-one]
1 to 5 µM	COc1ccc(-n2nnc3cnc(N[C@@H]4CCN(C(=O)OC(C)(C)C)C4)nc32)cc1 [A65, (R)-3-[3-(4-methoxy-phenyl)-3H-[1,2,3]triazolo[4,5-d]pyrimidin-5-ylamino]-pyrrolidine-1-carboxylic acid tert-butyl ester]
5 to 10 µM	COc1ccc(-n2nnc3cnc(N[C@H]4CCN(C(=O)OC(C)(C)C)C4)nc32)cc1 [A66, (S)-3-[3-(4-methoxy-phenyl)-3H-[1,2,3]triazolo[4,5-d]pyrimidin-5-ylamino]-pyrrolidine-1-carboxylic acid tert-butyl ester]
< 1 µM	COCCOc1ccc(-n2nnc3cnc(NCCCc4ccccn4)nc32)cc1 [A68, {3-[4-(2-methoxy-ethoxy)-phenyl]-3H-[1,2,3]triazolo[4,5-d]pyrimidin-5-yl}-(3-pyridin-2-yl-propyl)-amine]
1 to 5 µM	COc1ccc(-n2nnc3cnc(N[C@@H]4CCNC4)nc32)cc1 [A69, [3-(4-methoxy-phenyl)-3H-[1,2,3]triazolo[4,5-d]pyrimidin-5-yl]-(R)-pyrrolidin-3-yl-amine hydrochloride]
< 1 µM	N[C@H]1CC[C@H](Nc2ncc3nnn(-c4ccc(N5CCCC5=O)cc4)c3n2)CC1 [A71, 1-{4-[5-((trans)-4-amino-cyclohexylamino)-[1,2,3]triazolo[4,5-d]pyrimidin-3-yl]-phenyl}-pyrrolidin-2-one]
< 1 µM	COc1ccc(-n2nnc3cnc(N[C@H]4CC[C@H](CCO)CC4)nc32)cc1 [A72, trans-2-{4-[3-(4-methoxy-phenyl)-3H-[1,2,3]triazolo[4,5-d]pyrimidin-5-ylamino]-cyclohexyl}-ethanol]
< 1 µM	COc1ccc(-n2nnc3cnc(N[C@H]4CC[C@@H](CCO)CC4)nc32)cc1 [A73, cis-2-{4-[3-(4-methoxy-phenyl)-3H-[1,2,3]triazolo[4,5-d]pyrimidin-5-ylamino]-cyclohexyl}-ethanol]
1 to 5 µM	COc1ccc(-n2nnc3cnc(NCCOCCN)nc32)cc1 [A74, [2-(2-amino-ethoxy)-ethyl]-[3-(4-methoxy-phenyl)-3H-[1,2,3]triazolo[4,5-d]-pyrimidin-5-yl]-amine formate]
< 1 µM	N[C@H]1CC[C@H](Nc2ncc3nnn(-c4ccc(F)cc4)c3n2)CC1 [A75, N-[3-(4-fluoro-phenyl)-3H-[1,2,3]triazolo[4,5-d]pyrimidin-5-yl]-(trans)-cyclohexane-1,4-diamine]
< 1 µM	COc1ccc(-n2nnc3cnc(NCCCOCCCN)nc32)cc1 [A76, [3-(3-amino-propoxy)-propyl]-[3-(4-methoxy-phenyl)-3H-[1,2,3]triazolo[4,5-d]pyrimidin-5-yl]-amine formate]
5 to 10 µM	COc1ccc(-n2nnc3cnc(N[C@H]4CCNC4)nc32)cc1 [A77, [3-(4-methoxy-phenyl)-3H-[1,2,3]triazolo[4,5-d]pyrimidin-5-yl]-(S)-pyrrolidin-3-yl-amine hydrochloride]
1 to 5 µM	COc1ccc(-n2nnc3cnc(NC4CCN(CCN5CCOCC5)CC4)nc32)cc1 [A78, [3-(4-methoxy-phenyl)-3H-[1,2,3]triazolo[4,5-d]pyrimidin-5-yl]-[1-(2-morpholin-4-yl-ethyl)-piperidin-4-yl]-amine]
< 1 µM	COc1ccc(-n2nnc3cnc(N[C@@H]4CC[C@H](C(=O)O)C4)nc32)cc1 [A79, (1S,3R)-3-[3-(4-methoxy-phenyl)-3H-[1,2,3]triazolo[4,5-d]pyrimidin-5-ylamino]-cyclopentanecarboxylic acid]
< 1 µM	COc1ccc(-n2nnc3cnc(NC4CCN(c5ccncc5)CC4)nc32)cc1 [A82, [3-(4-methoxy-phenyl)-3H-[1,2,3]triazolo[4,5-d]pyrimidin-5-yl]-(3,4,5,6-tetrahydro-2H-[1,4′]bipyridinyl-4-yl)-amine]
